Measurements: patent publication US20040023312A1, “Method for diagnosing huntingtons disease and means of treating it” (priority 2002, published 2004)
Like-named read-outs stand apart in the source and are kept apart here.

How the values were obtained:
[1] = system: G-proteins; test: cAMP response induced by GTP-gammaS, a direct stimulator of G-proteins; type: cell-based, rat; settings: 10 μM GTP-gammaS; parental clone
Description: This concept is set down in the next page.

[2] = system: adenyl cyclase; test: cAMP levels stimulated by forskolin in ST14A parental cells and huntingtin clones; type: cell-based, rat
[3] = in vivo; cited from earlier work
[4] = system: N548wt cells; test: Serum-deprivation induced cell death (mitochondrial function); settings: antagonist 100 nM, 24 h serum-free medium
Description: Cell death has been induced by shifting cultures to serum-free medium in the absence (black columns) or presence of the indicated A2A receptor antagonists. Data are the mean±S.E. of 6 experiments run in triplicate and are expressed as % of total cell death. *p<0.05 vs. control, Scheffe's test.
To assess the functional importance of the aberrant A2A receptor phenotype and its possible correlation with susceptibility to cell death, we have performed experiments where the influence of A2A receptor antagonists on the survival rate of ST14A cells have been specifically determined.

[5] = target: A2A receptor (Rattus norvegicus, UniProt P30543); settings: for cAMP formation with NECA + antagonist: 100 nM NECA, ST14A cells
A2A receptor, sequence (P30543 whole entry): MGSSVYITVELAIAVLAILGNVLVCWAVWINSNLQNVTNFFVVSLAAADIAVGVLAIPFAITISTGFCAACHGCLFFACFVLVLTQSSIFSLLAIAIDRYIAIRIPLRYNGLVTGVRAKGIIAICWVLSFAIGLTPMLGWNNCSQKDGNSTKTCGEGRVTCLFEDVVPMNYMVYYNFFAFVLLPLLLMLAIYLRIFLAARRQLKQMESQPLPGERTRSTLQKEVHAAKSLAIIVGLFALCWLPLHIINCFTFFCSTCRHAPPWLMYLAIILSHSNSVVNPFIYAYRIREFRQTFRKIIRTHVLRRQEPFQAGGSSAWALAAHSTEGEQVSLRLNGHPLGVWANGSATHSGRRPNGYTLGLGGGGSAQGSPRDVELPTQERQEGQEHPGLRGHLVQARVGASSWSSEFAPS

[6] = focal ischaemia model; cited from earlier work

SMILES: Nc1nc2c(ncn2[C@@H]2O[C@H](COP(=O)(O)OP(=O)(O)OP(O)(O)=S)[C@@H](O)[C@H]2O)c(=O)[nH]1 [GTP-gammaS]
- cAMP levels in the presence of GTP-gammaS [1]: 65±2 pmoles/10^5 cells

SMILES: C=C[C@@]1(C)CC(=O)[C@]2(O)[C@@]3(C)[C@@H](O)CCC(C)(C)[C@@H]3[C@H](O)[C@H](OC(C)=O)[C@@]2(C)O1 [Forskolin]
- cyclic AMP levels stimulated by forskolin ([2]; Forskolin 1 μM + Ro201724 0.5 mM, FL mu cells): 78 ± 7 pmoles/10^5 cells
- cyclic AMP levels stimulated by forskolin ([2]; Forskolin 1 μM + Ro201724 0.5 mM, FL wt cells): 60 ± 6 pmoles/10^5 cells
- cyclic AMP levels stimulated by forskolin ([2]; Forskolin 1 μM + Ro201724 0.5 mM, N548 wt cells): 63 ± 6 pmoles/10^5 cells
- cyclic AMP levels stimulated by forskolin ([2]; Forskolin 1 μM + Ro201724 0.5 mM, ST14A cells): 58 ± 4 pmoles/10^5 cells
- cyclic AMP levels stimulated by forskolin ([2]; Forskolin 1 μM, FL mu cells): 55 ± 5 pmoles/10^5 cells
- cyclic AMP levels stimulated by forskolin ([2]; Forskolin 1 μM, FL wt cells): 54 ± 6 pmoles/10^5 cells
- cyclic AMP levels stimulated by forskolin ([2]; Forskolin 1 μM, N548 wt cells): 47 ± 3 pmoles/10^5 cells
- cyclic AMP levels stimulated by forskolin ([2]; Forskolin 1 μM, ST14A cells): 45 ± 5 pmoles/10^5 cells

SMILES: CCCCC#Cc1nc(N)c2ncn([C@@H]3O[C@H](C(=O)NCC)[C@@H](O)[C@H]3O)c2n1 [2-hexinyl-NECA]
- convulsions induced by pentyl-tetrazole [3]: markedly reduces

SMILES: Nc1nc(NCCc2ccc(O)cc2)nc2nc(-c3ccco3)nn12 [ZM 241385, 4-[2-[[7-amino-2-(2-furyl)[1,2,4]triazolo[2,3-a][1,3,5]triazin-5-yl]amino]ethyl]phenol]
- effect on extent of serum-deprivation induced cell death [4]: did not significantly affect

SMILES: Cn1c(=O)c2c(ncn2C)n(C)c1=O [Caffeine, caffeine]
- cAMP formation with NECA + antagonist ([5]; antagonist 10 μM): 30 ± 3 pmole/10^5 cells
- cAMP formation with NECA + antagonist ([5]; antagonist 100 μM): 27 ± 3 pmole/10^5 cells
- cAMP formation with NECA + antagonist ([5]; antagonist 1 mM): 24 ± 3 pmole/10^5 cells
- antagonism of the increases in cAMP induced by NECA ([5]; NECA 100 nM, parental clone and engineered clones): completely antagonizing

SMILES: Nc1nc2c(cnn2CCc2ccccc2)c2nc(-c3ccco3)nn12 [SCH 58261, 5-amino-7-(2-phenylethyl)-2-(2-furyl)pyrazolo[4,3-e]-1,2,4-triazolo [1,5-c]pyrimidine]
- cortical damage associated with occlusion of the middle cerebral artery [6]: significantly reducing
- effect on extent of serum-deprivation induced cell death [4]: did not significantly affect
